Here are results for 28 compounds from patent US20250034170A1, “SMALL MOLECULE MODULATORS OF GLUCOCEREBROSIDASE ACTIVITY AND USES THEREOF” (Vanqua Bio, Inc., priority 2021, published 2025).

Broadly, the EC50 is the concentration giving half of the maximal effect. A low value points to a more potent agent.

Molecules are shown by their SMILES. Some results are limits rather than exact numbers.

One assay concerns the target T1, GCase (Homo sapiens, UniProt P04062).
T1 construct: endogenous in cells; host or cells: HeLa cells
T1 sequence (P04062 40-536): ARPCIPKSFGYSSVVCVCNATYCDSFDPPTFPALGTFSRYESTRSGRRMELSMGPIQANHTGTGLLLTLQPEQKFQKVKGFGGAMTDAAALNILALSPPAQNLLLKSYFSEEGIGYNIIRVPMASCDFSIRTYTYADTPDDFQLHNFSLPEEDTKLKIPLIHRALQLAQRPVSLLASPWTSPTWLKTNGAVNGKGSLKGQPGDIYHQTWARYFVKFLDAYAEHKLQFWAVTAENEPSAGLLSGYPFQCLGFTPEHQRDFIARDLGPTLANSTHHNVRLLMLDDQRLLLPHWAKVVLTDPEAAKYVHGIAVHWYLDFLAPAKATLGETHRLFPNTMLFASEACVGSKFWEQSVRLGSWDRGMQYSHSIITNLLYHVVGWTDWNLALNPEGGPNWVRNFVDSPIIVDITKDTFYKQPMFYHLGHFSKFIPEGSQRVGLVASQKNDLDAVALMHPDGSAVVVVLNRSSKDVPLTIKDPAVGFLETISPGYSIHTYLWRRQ
In words: activation of GCase in a live cell PFB assay in HELA cells. It is filed as cell-based. Particulars: EC50 given as range classes. The method, then:
Exemplary compounds were evaluated for activation of GCase in a live cell PFB assay in HELA cells (essentially as described in Ysselstein et al., “LRRK2 kinase activity regulates lysosomal glucocerebrosidase in neurons derived from Parkinson's disease patients” Nature Communications (2019) 10:5570). […] EC50 ranges: A: <10 μM; B: >10-50 μM; C: >50-100 μM; D: >100 μM.
For the compound `O=C1CC2(CCN(c3ncc4cnn(CC(F)F)c4n3)CC2)CN1c1ccc(C(F)(F)F)nc1` [Cmpd 828], the EC50 lay in the range of 10 to 50 µM.

`Cc1nn(CC(F)F)c2nc(N3CCC4(CCN(c5cnc(C(F)(F)F)nc5)C4)CC3)cnc12` [Cmpd 829]: the concentration for a half-maximal effect (EC50) is below 10 µM.

Compound `Cc1nn(CC(F)F)c2nc(N3CCC4(CCN(c5ccc(C(F)(F)F)nc5)C4)CC3)ncc12` [Cmpd 830] came in with a half-maximal effective concentration (EC50) below 10 µM.

The compound `Cc1nn(CC(F)F)c2nc(N3CCC4(CC3)CCN(c3ccc(C(F)(F)F)nc3)C4=O)ncc12` [Cmpd 831] displayed an EC50 of 10 to 50 µM.

`Cc1nn(CC(F)F)c2nc(N3CCC4(CC3)CC(=O)N(c3ccc(C(F)(F)F)nc3)C4)ncc12` [Cmpd 832] gave an EC50 below 10 µM.

Compound `COc1nn(CC(F)F)c2nc(N3CCC4(CCN(c5ccc(C(F)(F)F)nc5)C4)CC3)cnc12` [Cmpd 833] returned an EC50 below 10 µM.

The assay is the same for the next values; noted with them: activation of GCase, EC50 ranges.
On to `COc1nc2cnn(CC(F)F)c2nc1N1CCC2(CC1)CCN(c1ccc(C(F)(F)F)nc1)C2=O` [Cmpd 834], for which the EC50 was below 10 µM.

The compound `COc1nn(CC(F)F)c2nc(N3CCC4(CC3)CCN(c3ccc(C(F)(F)F)nc3)C4=O)cnc12` [Cmpd 835] gave a concentration for a half-maximal effect (EC50) below 10 µM.

`COc1nc2cnn(CC(F)F)c2nc1N1CCC2(CC1)CC(=O)N(c1ccc(C(F)(F)F)nc1)C2` [Cmpd 836]: the EC50 is below 10 µM.

In turn, `COc1nn(CC(F)F)c2nc(N3CCC4(CC3)CC(=O)N(c3ccc(C(F)(F)F)nc3)C4)cnc12` [Cmpd 837] displayed an EC50 below 10 µM.

With `O=C1N(c2nc(C(F)(F)F)co2)CCC12CCN(c1cnc3cnn(CC(F)F)c3n1)CC2` [Cmpd 838], the concentration giving a half-maximal response (EC50) is 10 to 50 µM.

For the compound `O=C1N(c2nnc(C(F)(F)F)o2)CCC12CCN(c1cnc3cnn(CC(F)F)c3n1)CC2` [Cmpd 839], the EC50 was below 10 µM.

For the compound `O=C1N(c2nnc(C(F)(F)F)s2)CCC12CCN(c1cnc3cnn(CC(F)F)c3n1)CC2` [Cmpd 840], the half-maximal effective concentration (EC50) is below 10 µM.

Take `O=C1N(c2cnc(C(F)(F)F)s2)CCC12CCN(c1cnc3cnn(CC(F)F)c3n1)CC2` [Cmpd 841]: the EC50 is below 10 µM.

Regarding `Cc1cnc(C(F)(F)F)nc1N1CCC2(CCN(c3cnc4cnn(CC(F)F)c4n3)CC2)C1=O` [Cmpd 842], the EC50 lay within 10 to 50 µM.

The compound `O=C1N(Cc2cnc(C(F)(F)F)nc2)CCC12CCN(c1cnc3cnn(CC(F)F)c3n1)CC2` [Cmpd 843] yielded a half-maximal effective concentration (EC50) of 10 to 50 µM.

For `O=C1N(Cc2ccnc(C(F)(F)F)n2)CCC12CCN(c1cnc3cnn(CC(F)F)c3n1)CC2` [Cmpd 844], the EC50 was below 10 µM.

In turn, `Cn1cc(N2CCC3(CCN(c4cnc5cnn(CC(F)F)c5n4)CC3)C2=O)ccc1=O` [Cmpd 845] came in with an EC50 of 10 to 50 µM.

As for `CCn1cc(N2CCC3(CCN(c4cnc5cnn(CC(F)F)c5n4)CC3)C2=O)ccc1=O` [Cmpd 846], the EC50 is 10 to 50 µM.

Turning to `CCn1nc(N2CCC3(CCN(c4cnc5cnn(CC(F)F)c5n4)CC3)C2=O)ccc1=O` [Cmpd 847], the EC50 fell in the range of 10 to 50 µM.

For `CC(C)N1C(=O)N(c2ccc(C(F)(F)F)nc2)C(=O)C12CCN(c1cnc3cnn(CC(F)F)c3n1)CC2` [Cmpd 848], the EC50 was 10 to 50 µM.

For the compound `CCN1C(=O)N(c2ccc(C(F)(F)F)nc2)C(=O)C12CCN(c1cnc3cnn(CC(F)F)c3n1)CC2` [Cmpd 849], the EC50 is below 10 µM.

For `CCN1C(=O)N(c2ccnc(C(F)(F)F)c2)C(=O)C12CCN(c1cnc3cnn(CC(F)F)c3n1)CC2` [Cmpd 850], the half-maximal effective concentration (EC50) was below 10 µM.

For `CCC1N(c2ccc(C(F)(F)F)cn2)C(=O)CC12CCN(c1cnc3cnn(CC(F)F)c3n1)CC2` (stereo not shown) [Cmpd 851], the concentration for a half-maximal effect (EC50) was below 10 µM.

`CCC1N(c2ccc(C(F)(F)F)nc2)C(=O)CC12CCN(c1cnc3cnn(CC(F)F)c3n1)CC2` (stereo not shown) [Cmpd 852] yielded an EC50 of 10 to 50 µM.

As for `CCC1N(c2ccnc(C(F)(F)F)c2)C(=O)CC12CCN(c1cnc3cnn(CC(F)F)c3n1)CC2` (stereo not shown) [Cmpd 853], the EC50 lay within 10 to 50 µM.

As for `CC[C@H]1N(c2ccnc(C(F)(F)F)c2)C(=O)CC12CCN(c1cnc3cnn(CC(F)F)c3n1)CC2` [Cmpd 854], the 50% effective concentration (EC50) lay within 10 to 50 µM.

In the case of `CC[C@@H]1N(c2ccnc(C(F)(F)F)c2)C(=O)CC12CCN(c1cnc3cnn(CC(F)F)c3n1)CC2` [Cmpd 855], the concentration giving a half-maximal response (EC50) was 10 to 50 µM.
